Reference: patent US20110082130A1 (LIGAND PHARMACEUTICALS, INC., priority 2006, published 2011)
Like-named read-outs stand apart in the source and are kept apart here.

Target: T1, chimeric human H3 receptor (Homo sapiens, UniProt Q9Y5N1)
T1 construct: made in house; host or cells: Sf9 insect cells (baculovirus); P2 membrane preparation
Assay: Chimeric human H3 receptor screening GTP binding assay (inhibition of histamine-stimulated GTP-gamma35S binding, Example 8)
Assay type: biochemical
Conditions: 4 μM of the compound, 1 μM histamine, read-out: percent inhibition of the signal obtained with 1 μM histamine
How it was run: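 Sf9 membranes co-expressing chimeric human H3 receptor and heterotrimeric G-protein, 35 μg per reaction, incubated 60 min at room temperature with 4 μM compound, 1 μM histamine, 10 μM GDP and […] GTP-gamma35S at pH 7.4. Filter-bound radioactivity counted. Result expressed as percent inhibition of the histamine signal after subtracting non-specific binding (10 μM GTP-gammaS).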

T1 sequence (Q9Y5N1 with tags, fused parts or gaps): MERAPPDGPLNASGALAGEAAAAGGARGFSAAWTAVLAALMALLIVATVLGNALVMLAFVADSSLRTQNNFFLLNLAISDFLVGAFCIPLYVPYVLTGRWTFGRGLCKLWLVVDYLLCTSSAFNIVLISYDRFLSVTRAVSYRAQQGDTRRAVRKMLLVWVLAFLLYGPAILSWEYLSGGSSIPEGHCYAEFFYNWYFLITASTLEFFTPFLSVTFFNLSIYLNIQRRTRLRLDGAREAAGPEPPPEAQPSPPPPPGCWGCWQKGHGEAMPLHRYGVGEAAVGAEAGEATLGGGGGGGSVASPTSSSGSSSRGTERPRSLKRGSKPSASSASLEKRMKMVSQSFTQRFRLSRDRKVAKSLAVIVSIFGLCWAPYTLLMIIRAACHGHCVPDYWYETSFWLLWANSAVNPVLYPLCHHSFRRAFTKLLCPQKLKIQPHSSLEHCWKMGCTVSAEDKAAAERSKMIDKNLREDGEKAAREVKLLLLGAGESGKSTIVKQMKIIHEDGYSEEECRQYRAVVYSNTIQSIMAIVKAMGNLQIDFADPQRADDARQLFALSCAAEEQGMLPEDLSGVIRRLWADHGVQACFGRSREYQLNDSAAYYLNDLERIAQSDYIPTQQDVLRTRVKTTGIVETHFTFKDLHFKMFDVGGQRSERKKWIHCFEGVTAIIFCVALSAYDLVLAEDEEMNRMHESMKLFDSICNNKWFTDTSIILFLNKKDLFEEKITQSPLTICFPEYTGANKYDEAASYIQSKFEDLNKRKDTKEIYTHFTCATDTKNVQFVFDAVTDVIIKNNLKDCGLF

inhibition at 4 µM ("†" in Ki of Table II) | inhibition at 4 µM (Table II "Ki", symbol †) | Structure (SMILES)
≥ 90% | – | CCc1cccc(-c2ccc3c(c2)CCN(CC(=O)N2CCN(C(C)C)CC2)C3)c1 [Compound 470, 6-(3-ethylphenyl)-2-[2-(4-isopropylpiperazin-1-yl)-2-oxoethyl]-1,2,3,4-tetrahydroisoquinoline]
≥ 90% | – | CC(C)(C)c1ccc(-c2ccc3c(c2)CCN(CC(=O)N2CCN(C4CCC4)CC2)C3)cc1 [Compound 471, 6-(4-tert-butylphenyl)-2-[2-(4-cyclobutylpiperazin-1-yl)-2-oxoethyl]-1,2,3,4-tetrahydroisoquinoline]
≥ 90% | – | O=C(CN1CCc2cc(-c3cccc(F)c3)ccc2C1)N1CCN(C2CCCC2)CC1 [Compound 411, 2-[2-(4-cyclopentylpiperazin-1-yl)-2-oxoethyl]-6-(3-fluorophenyl)-1,2,3,4-tetrahydroisoquinoline]
– | ≥ 90% | O=C(CN1CCc2cc(-c3cc(F)cc(F)c3)ccc2C1)N1CCN(C2CCC2)CC1 [Compound 596, 2-[2-(4-cyclobutylpiperazin-1-yl)-2-oxoethyl]-6-(3,5-difluorophenyl)-1,2,3,4-tetrahydroisoquinoline]
– | ≥ 90% | CC(C)OCCNc1ccc2c(n1)CCN(CC(=O)N1CCN(C3CCC3)CC1)C2 [Compound 668, 6-[2-(4-cyclobutylpiperazin-1-yl)-2-oxoethyl]-N-(2-isopropoxyethyl)-5,6,7,8-tetrahydro-1,6-naphthyridin-2-amine]
≥ 90% | – | CCc1cccc(-c2ccc3c(c2)CCN(CC(=O)N2CCN(C4CCCCC4)CC2)C3)c1 [Compound 469, 2-[2-(4-cyclohexylpiperazin-1-yl)-2-oxoethyl]-6-(3-ethylphenyl)-1,2,3,4-tetrahydroisoquinoline]
≥ 90% | – | CC(C)c1cccc(-c2ccc3c(c2)CCN(CC(=O)N2CCN(C(C)C)CC2)C3)c1 [Compound 442, 6-(3-isopropylphenyl)-2-[2-(4-isopropylpiperazin-1-yl)-2-oxoethyl]-1,2,3,4-tetrahydroisoquinoline]
– | ≥ 90% | COc1ccc(-c2ccc3c(c2)CCN(CC(=O)N2CCN(C4CCCC4)CC2)C3)c(C)c1 [Compound 549, 2-[2-(4-cyclopentylpiperazin-1-yl)-2-oxoethyl]-6-(4-methoxy-2-methylphenyl)-1,2,3,4-tetrahydroisoquinoline]
– | ≥ 90% | CCOc1ccccc1-c1ccc2c(c1)CCN(CC(=O)N1CCN(C3CCC3)CC1)C2 [Compound 566, 2-[2-(4-cyclobutylpiperazin-1-yl)-2-oxoethyl]-6-(2-ethoxyphenyl)-1,2,3,4-tetrahydroisoquinoline]
– | ≥ 90% | COc1ccc(C(C)C)cc1-c1ccc2c(c1)CCN(CC(=O)N1CCN(C3CCCC3)CC1)C2 [Compound 555, 2-[2-(4-cyclopentylpiperazin-1-yl)-2-oxoethyl]-6-(5-isopropyl-2-methoxyphenyl)-1,2,3,4-tetrahydroisoquinoline]
– | ≥ 90% | COc1ccc(OC)c(-c2ccc3c(c2)CCN(CC(=O)N2CCN(C4CCCC4)CC2)C3)c1 [Compound 560, 2-[2-(4-cyclopentylpiperazin-1-yl)-2-oxoethyl]-6-(2,5-dimethoxyphenyl)-1,2,3,4-tetrahydroisoquinoline]
– | ≥ 90% | CCOc1cccc(-c2ccc3c(c2)CCN(CC(=O)N2CCN(C(C)C)CC2)C3)c1 [Compound 485, 6-(3-ethoxyphenyl)-2-[2-(4-isopropylpiperazin-1-yl)-2-oxoethyl]-1,2,3,4-tetrahydroisoquinoline]
– | ≥ 90% | CCOc1ccccc1-c1ccc2c(c1)CCN(CC(=O)N1CCN(C3CCCCC3)CC1)C2 [Compound 568, 2-[2-(4-cyclohexylpiperazin-1-yl)-2-oxoethyl]-6-(2-ethoxyphenyl)-1,2,3,4-tetrahydroisoquinoline]
– | ≥ 90% | COc1ccc(-c2ccc(-c3ccc4c(c3)CCN(CC(=O)N3CCN(C(C)C)CC3)C4)cc2)cc1 [Compound 501, 2-[2-(4-isopropylpiperazin-1-yl)-2-oxoethyl]-6-(4′-methoxybiphenyl-4-yl)-1,2,3,4-tetrahydroisoquinoline]
– | ≥ 90% | COc1ccc(C(C)C)cc1-c1ccc2c(c1)CCN(CC(=O)N1CCN(C3CCCCC3)CC1)C2 [Compound 556, 2-[2-(4-cyclohexylpiperazin-1-yl)-2-oxoethyl]-6-(5-isopropyl-2-methoxyphenyl)-1,2,3,4-tetrahydroisoquinoline]
– | ≥ 90% | O=C(CN1CCc2cc(-c3cncnc3)ccc2C1)N1C[C@@H]2C[C@H]1CN2C1CCCCC1 (stereo in doubt) [Compound 618, 2-{2-[(1S,4S)-5-cyclohexyl-2,5-diazabicyclo[2.2.1]hept-2-yl]-2-oxoethyl}-6-pyrimidin-5-yl-1,2,3,4-tetrahydroisoquinoline]
– | ≥ 90% | CCOc1ccccc1-c1ccc2c(c1)CCN(CC(=O)N1CCN(C(C)C)CC1)C2 [Compound 569, 6-(2-ethoxyphenyl)-2-[2-(4-isopropylpiperazin-1-yl)-2-oxoethyl]-1,2,3,4-tetrahydroisoquinoline]
– | ≥ 90% | COc1ccc(-c2ccc3c(c2)CCN(CC(=O)N2CCN(C4CCCCC4)CC2)C3)c(C)c1 [Compound 550, 2-[2-(4-cyclohexylpiperazin-1-yl)-2-oxoethyl]-6-(4-methoxy-2-methylphenyl)-1,2,3,4-tetrahydroisoquinoline]
– | ≥ 90% | COc1ccccc1-c1ccc2c(c1)CCN(CC(=O)N1CCN(C3CCCC3)CC1)C2 [Compound 552, 2-[2-(4-cyclopentylpiperazin-1-yl)-2-oxoethyl]-6-(2-methoxyphenyl)-1,2,3,4-tetrahydroisoquinoline]
– | ≥ 90% | COc1ccc(OC)c(-c2ccc3c(c2)CCN(CC(=O)N2CCN(C(C)C)CC2)C3)c1 [Compound 562, 6-(2,5-dimethoxyphenyl)-2-[2-(4-isopropylpiperazin-1-yl)-2-oxoethyl]-1,2,3,4-tetrahydroisoquinoline]
– | ≥ 90% | CC(C)N1CCN(C(=O)CN2CCc3cc(-c4ccccc4Oc4ccccc4)ccc3C2)CC1 [Compound 578, 2-[2-(4-isopropylpiperazin-1-yl)-2-oxoethyl]-6-(2-phenoxyphenyl)-1,2,3,4-tetrahydroisoquinoline]
≥ 90% | – | O=C(CN1CCc2cc(-c3ccccc3)ccc2C1)N1CCN(C2CCCCC2)CC1 [Compound 400, 2-[2-(4-cyclohexylpiperazin-1-yl)-2-oxoethyl]-6-phenyl-1,2,3,4-tetrahydroisoquinoline]
– | ≥ 90% | COc1ccccc1-c1ccc2c(c1)CCN(CC(=O)N1CCN(C3CCC3)CC1)C2 [Compound 551, 2-[2-(4-cyclobutylpiperazin-1-yl)-2-oxoethyl]-6-(2-methoxyphenyl)-1,2,3,4-tetrahydroisoquinoline]
– | ≥ 90% | COc1ccc(-c2ccc3c(c2)CCN(CC(=O)N2CCN(C4CCCCC4)CC2)C3)c(OC)c1 [Compound 565, 2-[2-(4-cyclohexylpiperazin-1-yl)-2-oxoethyl]-6-(2,4-dimethoxyphenyl)-1,2,3,4-tetrahydroisoquinoline]
– | ≥ 90% | CCOc1ccccc1-c1ccc2c(c1)CCN(CC(=O)N1CCN(C3CCCC3)CC1)C2 [Compound 567, 2-[2-(4-cyclopentylpiperazin-1-yl)-2-oxoethyl]-6-(2-ethoxyphenyl)-1,2,3,4-tetrahydroisoquinoline]
